Results: US6676932B2, “Ultraviolet absorbent, photostabilizer, ultraviolet ray-absorbing composition, photostabilized composition and external preparation for skin” (Shiseido Co., Ltd., priority 2001, dated 2004)

Columns and labels:
Assay type in all cases: physicochemical
[1] = Drug stabilization effect under daylight exposure (Test Examples 182 to 211); design: key to Appearance (visual determination): ◯: no change; Δ: almost no change; x: change; details: photostabilizer 0.05 wt %, daylight exposure (80 MJ); for Remaining ratio (%): liquid chromatography
Description: (§1) For observation of the change of the appearance of each test sample (determination based on visual observation) and the measurement of the remaining ratio by liquid chromatography before and after daylight exposure (80 MJ), the test sample was prepared.

[2] = Dye stabilization effect under daylight exposure (Test Examples 6-91); design: key to Δ E: color difference ΔE in Lab vs. color before daylight exposure; key to Appearance (visual determination): ◯: no change; Δ: almost no change; x: change; details: photostabilizer 0.05 wt %, daylight exposure (80 MJ)
Description: For observation of the change of the appearance of each test sample (determination based on visual observation) and the measurement of color difference (ΔE) before and after daylight exposure (80 MJ), the test sample was prepared.
(§2) With a spectrophotometer, the color was measured on the Lab coordinate system, to calculate the color difference on the basis of the color before daylight exposure. More specifically, the color difference (ΔE) was calculated on the basis of the measured values (L1, a1, b1) before daylight exposure.

[3] = Dye stabilization effect in blend with sequestering agents (Test Examples 212 to 275); details: daylight exposure (80 MJ)
Description: Each test sample was prepared for observation of the change of the appearance of each test sample (determined visually) and measurement of the color difference (ΔE) before and after daylight exposure (80 MJ).
as §2

[4] = Stabilization effect on perfume under daylight exposure (Test Examples 92 to 181); design: key: ◯: no change; Δ: almost no change; x: change; details: daylight exposure (80 MJ)
Description: Each test sample was prepared for observation of the change of the odor of the test sample (determined by perfume coordinator) before and after daylight exposure (80 MJ).

[5] = Drug stabilization effect blended with sequestering agent (Test Examples 372 to 391); design: key to Appearance (visual determination): ◯: no change; Δ: almost no change; x: change; details: photostabilizer blend amount 0.03, daylight exposure (80 MJ)
Description: Then, the photostabilization effect of the pyridazine derivative in combination with sequestering agents on each drug and the change of the appearance of each composition were examined, by using the following formulation for assessment.
as §1

[6] = drug L-ascorbic acid 2-glucoside 2.0 wt %
[7] = dye Blue 1 (Brilliant Blue FCF) 0.0001 wt %
[8] = dye Green 3 (Fast Green FCF) 0.001 wt %
[9] = dye Red 227 (Acid Fuchsine D) 0.0001 wt %
[10] = dye Yellow 5 (Sunset Yellow FCF) 0.001 wt %
[11] = dyes Yellow 203 (Quinoline Yellow WS) 0.0001 + Yellow 5 (Sunset Yellow FCF) 0.0001 wt %
[12] = natural perfume Nelori oil, photostabilizer 0.1 wt %
[13] = synthetic perfume Limonene oil, photostabilizer 0.05 wt %
[14] = drug dibutylhydroxytoluene 0.01 wt %
[15] = dyes Red 401 (Violanin R) 0.0001 + Blue 1 (Brilliant Blue FCF) 0.00001 wt %
[16] = drug dl-α-tocopherol 2-L-ascorbic acid phosphate diester potassium salt 0.01 wt %
[17] = dyes Red 213 (Rhodamine B) 0.00001 + Blue 1 (Brilliant Blue FCF) 0.00001 wt %
[18] = dyes Red 227 (Acid Fuchsine D) 0.0001 + Yellow 5 (Sunset Yellow FCF) 0.0001 wt %

c1cc(N2CCOCC2)nnc1N1CCOCC1 [3,6-Dimorpholinopyridazine]
Appearance (visual determination) [1, 6]: ◯ | Remaining ratio (%) [1, 6]: 98.5% | Appearance (visual determination) [2, 7]: ◯ | Δ E [2, 7]: 1.25 | Appearance (visual determination) [2, 8]: ◯ | Δ E [2, 8]: 0.44 | Appearance (visual determination) [2, 9]: ◯ | Δ E [2, 9]: 0.53 | Appearance (visual determination) [2, 10]: ◯ | Δ E [2, 10]: 0.51 | Appearance (visual determination) [2, 11]: ◯ | Δ E [2, 11]: 0.40 | Δ E ([3]; dyes Red 213 (Rhodamine B) 0.00001 + Blue 1 (Brilliant Blue FCF) 0.00001, no sequestering agent, photostabilizer blend amount 0.02): 1.98 | Δ E ([3]; dyes Red 213 (Rhodamine B) 0.00001 + Blue 1 (Brilliant Blue FCF) 0.00001, with ethylenediaminehydroxyethyl trisodium triacetate 0.03, photostabilizer blend amount 0.02): 1.32 | odor determination ([4]; base perfume Fruity, photostabilizer 0.1 wt %): ◯ | odor determination [4, 12]: ◯ | odor determination [4, 13]: ◯ | Appearance (visual determination) ([5]; drug dibutylhydroxy toluene 0.01, no sequestering agent): Δ | Appearance (visual determination) ([5]; drug dibutylhydroxy toluene 0.01, with sodium metaphosphate 0.03): ◯

Oc1ccc(N2CCOCC2)nn1 [3-Hydroxy-6-morpholinopyridazine, 6-Morpholino-3-hydroxypyridazine]
Appearance (visual determination) [1, 14]: ◯ | Remaining ratio (%) [1, 14]: 98.0% | Appearance (visual determination) [2, 7]: ◯ | Δ E [2, 7]: 1.32 | Appearance (visual determination) [2, 8]: ◯ | Δ E [2, 8]: 0.43 | Appearance (visual determination) [2, 9]: ◯ | Δ E [2, 9]: 0.54 | Appearance (visual determination) [2, 10]: ◯ | Δ E [2, 10]: 0.53 | Appearance (visual determination) [2, 15]: ◯ | Δ E [2, 15]: 0.52 | Appearance (visual determination) [2, 11]: ◯ | Δ E [2, 11]: 0.44 | Δ E ([3]; dye Green 3 (Fast Green FCF) 0.001, photostabilizer 0.02, no sequestering agent): 0.75 | Δ E ([3]; dye Green 3 (Fast Green FCF) 0.001, photostabilizer 0.02, with ethylenediaminetetraacetate trisodium 0.1): 0.32 | Δ E ([3]; dye Green 3 (Fast Green FCF) 0.001, photostabilizer 0.02, with sodium metaphosphate 0.1): 0.36 | Δ E ([3]; dye Green 3 (Fast Green FCF) 0.001, photostabilizer 0.02, with sodium polyphosphate 0.1): 0.52 | Δ E ([3]; dyes Red 106 (Acid Red) 0.00001 + Yellow 5 (Sunset Yellow FCF) 0.0001, no sequestering agent, photostabilizer blend amount 0.01): 1.38 | Δ E ([3]; dyes Red 106 (Acid Red) 0.00001 + Yellow 5 (Sunset Yellow FCF) 0.0001, with ethylenediaminetetraacetate trisodium 0.02, photostabilizer blend amount 0.01): 0.92 | odor determination [4, 12]: ◯ | odor determination ([4]; natural perfume Ylang ylang oil, photostabilizer 0.2 wt %): ◯ | odor determination [4, 13]: ◯ | odor determination ([4]; synthetic perfume Linalool, photostabilizer 0.05 wt %): ◯ | Appearance (visual determination) ([5]; drug L-ascorbic acid 2-glucoside 2.0, no sequestering agent): ◯ | Appearance (visual determination) ([5]; drug L-ascorbic acid 2-glucoside 2.0, with sodium metaphosphate 0.03): ◯

Oc1cc(N2CCCCC2)cnn1 [3-Hydroxy-5-piperidinopyridazine, 3-hydroxy-5-piperidinopyridazine]
Appearance (visual determination) [1, 16]: ◯ | Remaining ratio (%) [1, 16]: 98.7% | Appearance (visual determination) ([1]; drug salicylic acid 0.1 wt %): ◯ | Remaining ratio (%) ([1]; drug salicylic acid 0.1 wt %): 98.5% | Appearance (visual determination) [2, 7]: ◯ | Δ E [2, 7]: 1.28 | Appearance (visual determination) [2, 8]: ◯ | Δ E [2, 8]: 0.45 | Appearance (visual determination) [2, 9]: ◯ | Δ E [2, 9]: 0.52 | Appearance (visual determination) [2, 10]: ◯ | Δ E [2, 10]: 0.53 | Appearance (visual determination) [2, 17]: ◯ | Δ E [2, 17]: 1.01 | Appearance (visual determination) [2, 18]: ◯ | Δ E [2, 18]: 0.68 | Δ E ([3]; dye Blue 1 (Brilliant Blue FCF) 0.001, photostabilizer 0.02, no sequestering agent): 1.74 | Δ E ([3]; dye Blue 1 (Brilliant Blue FCF) 0.001, photostabilizer 0.02, with ethylenediaminehydroxyethyl trisodium triacetate 0.05): 0.54 | Δ E ([3]; dye Blue 1 (Brilliant Blue FCF) 0.001, photostabilizer 0.02, with ethylenediaminetetraacetate trisodium 0.05): 0.78 | Δ E ([3]; dye Blue 1 (Brilliant Blue FCF) 0.001, photostabilizer 0.02, with sodium metaphosphate 0.05): 0.88 | Δ E ([3]; dyes Red 106 (Acid Red) 0.00001 + Yellow 203 (Quinoline Yellow WS) 0.0001, no sequestering agent, photostabilizer blend amount 0.01): 1.08 | Δ E ([3]; dyes Red 106 (Acid Red) 0.00001 + Yellow 203 (Quinoline Yellow WS) 0.0001, with ethylenediaminehydroxyethyl trisodium triacetate 0.02, photostabilizer blend amount 0.01): 0.72 | odor determination ([4]; base perfume Rose, photostabilizer 0.05 wt %): ◯ | odor determination ([4]; base perfume Woody, photostabilizer 0.1 wt %): ◯ | odor determination ([4]; natural perfume Lavender oil, photostabilizer 0.1 wt %): ◯ | odor determination ([4]; natural perfume Rose oil, photostabilizer 0.05 wt %): ◯ | odor determination ([4]; synthetic perfume Citral, photostabilizer 0.1 wt %): ◯ | odor determination ([4]; synthetic perfume Linalyl acetate, photostabilizer 0.1 wt %): ◯ | Appearance (visual determination) ([5]; drug dl-α-tocopherol 2-L-ascorbic acid phosphate diester potassium salt 0.01, no sequestering agent): Δ | Appearance (visual determination) ([5]; drug dl-α-tocopherol 2-L-ascorbic acid phosphate diester potassium salt 0.01, with ethylenediaminehydroxyethyl Triacetate trisodium 0.03): ◯
